Test results from PMC12081877 (Nature Communications, 2025).

Legend:
in vitro = conditions: human, Caco-2, Caco-2 permeability Papp A to B
M^pro = conditions: cited from earlier work

SMILES | Papp A→B (in vitro) [×10⁻⁶ cm/s] | IC50 (M^pro) [nM]
Cn1cnc(Cn2c(=O)[nH]/c(=N\c3cc4cn(C)nc4cc3Cl)n(Cc3cc(F)c(F)cc3F)c2=O)n1 [Ensitrelvir] | 0.42 | –
C[C@H](NC(=O)[C@@H](c1cccnc1)N(C(=O)C(Cl)Cl)c1ccc(-c2ccccc2)cc1)c1ccccc1 [Jun9-62-2R] | – | 430
CC(C)(C)[C@H](NC(=O)C(F)(F)F)C(=O)N1C[C@H]2[C@@H]([C@H]1C(=O)N[C@H](C#N)C[C@@H]1CCNC1=O)C2(C)C [Nirmatrelvir] | < 0.1 | –
